Tests used:
AlfC = molecular target: T1, AlfC (Lacticaseibacillus paracasei, UniProt A0A422MHI3); assay: transfucosylation, product by HPLC and NMR; type: biochemical; conditions: acceptor, 100 mM; donor 50 mM pNP-fuc; 100 mM Tris-HCl pH 7.0, 42°C
T1 construct: gene BN194_28780; 6xHis-AlfC from E. coli DH10B with pQEalfC, purified as earlier published
T1 sequence (A0A422MHI3 1-344): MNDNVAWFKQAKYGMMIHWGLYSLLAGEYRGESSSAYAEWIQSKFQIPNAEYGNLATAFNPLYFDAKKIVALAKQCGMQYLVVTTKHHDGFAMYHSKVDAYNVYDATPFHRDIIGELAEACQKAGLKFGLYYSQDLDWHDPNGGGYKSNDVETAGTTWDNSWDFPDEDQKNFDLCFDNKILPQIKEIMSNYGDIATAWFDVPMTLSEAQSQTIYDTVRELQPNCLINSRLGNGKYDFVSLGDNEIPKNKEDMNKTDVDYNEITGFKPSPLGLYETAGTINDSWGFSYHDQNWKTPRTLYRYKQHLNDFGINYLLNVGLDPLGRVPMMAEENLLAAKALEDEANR

[1] = molecular target: His-tagged AsnA2, N(4)-(β-N-acetylglucosaminyl)-L-asparaginase (glycosylasparaginase) of Lactobacillus casei BL23 (Lactobacillus casei BL23); assay: SEC; size exclusion chromatography of purified His-tagged AsnA2 on a HiPrep 16/60 Sephacryl S-300 HR column, calibrated with five standard proteins; native molecular weight estimated

stoichiometry N [1]	Molecule	transfucosylation, product by HPLC and NMR (AlfC)
–	CC(=O)N[C@@H]1[C@@H](O)[C@H](O)[C@@H](CO)O[C@H]1NC(=O)C[C@H](N)C(=O)O [GlcNAc-Asn]	the ability of AlfC to use GlcNAc-Asn as the acceptor was tested
2	His-tagged AsnA2, N(4)-(β-N-acetylglucosaminyl)-L-asparaginase (glycosylasparaginase) of Lactobacillus casei BL23 (enzyme)	–

From PMC6960285, “Unique Microbial Catabolic Pathway for the Human Core N-Glycan Constituent Fucosyl-α-1,6-N-Acetylglucosamine-Asparagine” (mBio, 2020)
